Assay [1] addresses T1, GPR3 (Homo sapiens, UniProt P46089).
T1 construct: expressed in transfected cells; host or cells: CHO cells
Briefly: GPR3 antagonist functional cAMP assay (LANCE Ultra cAMP TR-FRET, CHO cells stably expressing GPR3). Format: cell-based. An outline of the steps:
(§1)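 Compounds, at 0.1% final DMSO, acted on the cells for 45 minutes at 37 °C in the presence of the phosphodiesterase inhibitor Ro 20-1724 (150 μM). After lysis and detection, plates were shaken 1 h at room temperature and emission at 665 nm was recorded. Normalized data gave IC50 values.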
For orientation: Changes in cAMP serve as a functional read-out for many G protein-coupled receptors.

Assay [2] concerns the target T2, GPR6 (Homo sapiens, UniProt P46095).
T2 construct: expressed in transfected cells; host or cells: CHO cells
In words: GPR6 antagonist functional cAMP assay (LANCE Ultra cAMP TR-FRET, CHO cells stably expressing GPR6). Format: cell-based. Put shortly:
as §1

The mark [3] stands for this setting: CHO cells stably expressing GPR3, cAMP assay.
Setting [4] is: CHO cells stably expressing GPR6, cAMP assay.
The mark [5] stands for this setting: CHO cells stably expressing GPR3, cAMP assay (Example 24).
Where [6] appears, read: CHO cells stably expressing GPR6, cAMP assay (Example 24).
[7] abbreviates: procedure as described in Example 24.

pIC50: −log10 of the molar value.

T1 sequence (P46089 whole entry, species assumed): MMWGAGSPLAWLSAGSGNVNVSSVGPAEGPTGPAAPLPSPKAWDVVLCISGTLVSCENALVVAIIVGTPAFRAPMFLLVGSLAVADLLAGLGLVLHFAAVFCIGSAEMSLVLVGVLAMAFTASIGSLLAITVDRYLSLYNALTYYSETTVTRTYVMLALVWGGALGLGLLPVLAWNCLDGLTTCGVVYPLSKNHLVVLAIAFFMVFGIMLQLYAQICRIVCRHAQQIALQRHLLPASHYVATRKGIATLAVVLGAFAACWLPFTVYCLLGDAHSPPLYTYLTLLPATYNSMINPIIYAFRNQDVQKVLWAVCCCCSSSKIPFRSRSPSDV
T2 sequence (P46095 whole entry): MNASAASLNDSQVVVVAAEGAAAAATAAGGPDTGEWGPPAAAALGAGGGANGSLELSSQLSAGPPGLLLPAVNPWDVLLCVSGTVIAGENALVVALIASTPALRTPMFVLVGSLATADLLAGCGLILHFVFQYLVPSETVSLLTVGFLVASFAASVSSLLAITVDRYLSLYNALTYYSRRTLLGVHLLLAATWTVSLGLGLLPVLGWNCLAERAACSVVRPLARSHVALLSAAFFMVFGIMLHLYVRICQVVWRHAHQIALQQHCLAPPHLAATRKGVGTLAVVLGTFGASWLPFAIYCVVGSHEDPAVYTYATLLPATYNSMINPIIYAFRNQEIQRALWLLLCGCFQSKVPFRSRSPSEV

Turning to `CC(=O)N1CCc2nc(N3CCC(=Cc4ccc(F)cc4)CC3)c(-c3cnn(C)c3)nc2C1` [Compound 560, 1-(2-{4-[(p-fluorophenyl)methylene]-1-piperidyl}-3-(1-methyl-4-pyrazolyl)-5,6,7,8-tetrahydro-1,4,6-triaza-6-naphthyl)-1-ethanone], the figures for the pIC50 in assay [1] (setting [3]) and in assay [2] (setting [4]) were 6.00 to 7.00 and above 7.00, respectively.

As to `CC(C)(O)C(O)c1cc2nc(N3CCN(Cc4ccc(F)cc4F)CC3)c(-c3cnn(C(F)F)c3)nc2cn1` (centres unmarked) [Compound 264, 1-{3-[1-(difluoromethyl)-1H-pyrazol-4-yl]-2-{4-[(2,4-difluorophenyl)methyl]piperazin-1-yl}pyrido[3,4-b]pyrazin-7-yl}-2-methylpropane-1,2-diol], the pIC50 in assay [1] (setting [5]) is 4.52 to 6.00; in assay [2] (setting [6]), above 7.00.

In the case of `CC(C)(O)[C@@](C)(O)c1cc2nc(N3CCC(Oc4ccc(F)cc4F)CC3)c(-c3cnn(CF)c3)nc2cn1` (single isomer, unassigned) [Compound 678], the figures for the pIC50 in assay [1] (procedure of Example 24) and in assay [2] (procedure of Example 24) were 4.52 to 6.00 and 6.00 to 7.00, respectively.

For `COCC(C)(O)c1cc2nc(-c3cnn(C)c3)c(N3CCC(Oc4ccc(F)cc4F)CC3)nc2cn1` (centres unmarked) [Compound 652, 2-{3-[4-(2,4-difluorophenoxy)-1-piperidyl]-2-(1-methyl-4-pyrazolyl)-1,4,6-triaza-7-naphthyl}-1-methoxy-2-propanol], the results for the pIC50 in assay [1] (procedure of Example 24) and in assay [2] (procedure of Example 24) were 4.52 to 6.00 and above 7.00, respectively.

In the case of `CC(C)OC(=O)N1CCc2nc(N3CCC(Oc4ccc(F)cc4F)CC3)c(-c3cnn(C4CCCCO4)c3)nc2C1` (centres unmarked) [Compound 156, propan-2-yl 2-[4-(2,4-difluorophenoxy)piperidin-1-yl]-3-[1-(oxan-2-yl)-1H-pyrazol-4-yl]-5H,6H,7H,8H-pyrido[3,4-b]pyrazine-6-carboxylate], the pIC50 in assay [1] (setting [5]) and in assay [2] (setting [6]) was 4.52 to 6.00 each time.

For the molecule `Cn1cc(-c2nc3cnc(C[C@@H](O)CO)cc3nc2N2CCC(Oc3ccc(F)cc3F)CC2)cn1` (single isomer, unassigned) [Compound 415], the pIC50 in assay [1] (setting [5]) is 4.52 to 6.00; in assay [2] (setting [6]) it was 6.00 to 7.00.

For the molecule `CC(=O)N1CCc2nc(N3CCC(Oc4ccc(F)cc4F)CC3)c(-c3cc[nH]c(=O)c3)nc2C1` [Compound 66, 4-{6-acetyl-2-[4-(2,4-difluorophenoxy)piperidin-1-yl]-5H,6H,7H,8H-pyrido[3,4-b]pyrazin-3-yl}-1,2-dihydropyridin-2-one], the pIC50 in assay [1] (setting [5]) and in assay [2] (setting [6]) was 4.52 to 6.00 throughout.

Take `O=C(CN1CCOCC1)N1CCc2nc(N3CCC(Oc4ccc(F)cc4F)CC3)c(-c3cn[nH]c3)nc2C1` [Compound 149, 1-{2-[4-(2,4-difluorophenoxy)piperidin-1-yl]-3-(1H-pyrazol-4-yl)-5H,6H,7H,8H-pyrido[3,4-b]pyrazin-6-yl}-2-(morpholin-4-yl)ethan-1-one]: the pIC50 in assay [1] (setting [5]) is 4.52 to 6.00; in assay [2] (setting [6]), 6.00 to 7.00.

As for `Cn1cc(-c2nc3cnc(C4(O)COCC4O)cc3nc2N2CCC(Oc3ccc(F)cc3F)CC2)cn1` (centres unmarked) [Compound 412, 3-{2-[4-(2,4-difluorophenoxy)piperidin-1-yl]-3-(1-methyl-1H-pyrazol-4-yl)pyrido[3,4-b]pyrazin-7-yl}oxolane-3,4-diol], the pIC50 in assay [1] (setting [5]) and in assay [2] (setting [6]) was 4.52 to 6.00 in each case.

For the molecule `CC(C)(O)[C@@H](O)c1cc2nc(N3CCC(=Cc4ccc(F)cc4F)CC3)c(-c3cnn(C4CC4)c3)nc2cn1` (single isomer, unassigned) [Compound 769], the pIC50 in assay [1] (procedure of Example 24) was 4.52 to 6.00; in assay [2] (procedure of Example 24), 6.00 to 7.00.

`COCC1CN(c2nc3ccncc3nc2-c2cn[nH]c2)CCN1Cc1ccc(F)cc1F` (single isomer, unassigned) [Compound 89, 2-(4-(2,4-difluorobenzyl)-3-(methoxymethyl)piperazin-1-yl)-3-(1H-pyrazol-4-yl)pyrido[3,4-b]pyrazine]: the pIC50 in assay [1] (setting [5]) and in assay [2] (setting [6]) was 4.52 to 6.00 each time.

Take `Cn1cc(-c2nc3cnc(C(C)(O)C(C)(C)O)cc3nc2N2CCN(Cc3ccc(F)cc3F)CC2)cn1` (centres unmarked) [Compound 617, 2-(2-{4-[(2,4-difluorophenyl)methyl]-1-piperazinyl}-3-(1-methyl-4-pyrazolyl)-1,4,6-triaza-7-naphthyl)-3-methyl-2,3-butanediol]: the pIC50 in assay [1] (procedure of Example 24) was 4.52 to 6.00; in assay [2] (procedure of Example 24), 6.00 to 7.00.

Turning to `CC(C)(O)C(O)c1cc2nc(N3CCN(Cc4ccccc4F)CC3)c(-c3cnn(CF)c3)nc2cn1` (centres unmarked) [Compound 606, 1-{3-[1-(fluoromethyl)-4-pyrazolyl]-2-{4-[(o-fluorophenyl)methyl]-1-piperazinyl}-1,4,6-triaza-7-naphthyl}-2-methyl-1,2-propanediol], the pIC50 in assay [1] (setting [3]) is 4.52 to 6.00; in assay [2] (setting [4]), 6.00 to 7.00.

Consider `Cn1cc(-c2nc3cnccc3nc2N2CCN(Cc3ccc(F)cc3F)CC2=O)cn1` [Compound 259, 4-(2,4-difluorobenzyl)-1-(3-(1-methyl-1H-pyrazol-4-yl)pyrido[3,4-b]pyrazin-2-yl)piperazin-2-one], for which the pIC50 in assay [1] (setting [5]) and in assay [2] (setting [6]) was at most 4.52 throughout.

`CC(=O)N1CCc2nc(N3CCN(Cc4ccc(F)cc4)CC3)c(-c3cnn(C)c3)nc2C1` [Compound 257, 1-(2-{4-[(4-fluorophenyl)methyl]piperazin-1-yl}-3-(1-methyl-1H-pyrazol-4-yl)-5H,6H,7H,8H-pyrido[3,4-b]pyrazin-6-yl)ethan-1-one]: the pIC50 in assay [1] (setting [5]) and in assay [2] (setting [6]) was 4.52 to 6.00 each time.

`CCn1cc(-c2nc3cc(C(O)C(C)(C)O)ncc3nc2N2CCC(Oc3ccc(F)cc3F)CC2)cn1` (single isomer, unassigned) [Compound 589]: the pIC50 is 6.00 to 7.00 in assay [1] (setting [3]) and above 7.00 in assay [2] (setting [4]).

As for `CN(C)C(=O)N1CCc2nc(N3CCC(Oc4ccc(F)cc4F)CC3)c(-c3cn[nH]c3)nc2C1` [Compound 187, 2-[4-(2,4-difluorophenoxy)piperidin-1-yl]-N,N-dimethyl-3-(1H-pyrazol-4-yl)-5H,6H,7H,8H-pyrido[3,4-b]pyrazine-6-carboxamide], the results for the pIC50 in assay [1] (setting [5]) and in assay [2] (setting [6]) were 4.52 to 6.00 and above 7.00, respectively.

Turning to `CC(=O)N1CCc2nc(N3CCN(Cc4cn[nH]c4)CC3)c(-c3cnn(C)c3)nc2C1` [Compound 536, 1-[3-(1-methyl-4-pyrazolyl)-2-{4-[(4-pyrazolyl)methyl]-1-piperazinyl}-5,6,7,8-tetrahydro-1,4,6-triaza-6-naphthyl]-1-ethanone], the pIC50 in assay [1] (setting [3]) and in assay [2] (setting [4]) was at most 4.52 throughout.

`CC(C)(O)[C@@](C)(O)c1cc2nc(N3CCN(Cc4ccc(F)cc4F)CC3)c(-c3cnn(C4CC4)c3)nc2cn1` (single isomer, unassigned) [Compound 667]: the figures for the pIC50 in assay [1] (procedure of Example 24) and in assay [2] (procedure of Example 24) were 4.52 to 6.00 and 6.00 to 7.00, respectively.

On to `CC(=O)N1CCc2nc(N3CCC(Oc4ccc(F)cc4F)CC3)c(-c3cccc(N(C)C)n3)nc2C1` [Compound 48, 1-{2-[4-(2,4-difluorophenoxy)piperidin-1-yl]-3-[6-(dimethylamino)pyridin-2-yl]-5H,6H,7H,8H-pyrido[3,4-b]pyrazin-6-yl}ethan-1-one], for which the pIC50 in assay [1] (setting [7]) and in assay [2] (setting [7]) was 4.52 to 6.00 throughout.

As to `Cn1cc(-c2nc3cnccc3nc2N2CC[C@H](Oc3ccc(F)cc3F)[C@H](F)C2)cn1` (single isomer, unassigned) [Compound 332], the pIC50 in assay [1] (procedure of Example 24) and in assay [2] (procedure of Example 24) was 4.52 to 6.00 each time.

Consider `CC(C)(O)C(O)c1cc2nc(-c3cnn(C(F)F)c3)c(N3CCC(=Cc4ccc(F)cc4F)CC3)nc2cn1` (single isomer, unassigned) [Compound 767], for which the negative-log IC50 (pIC50) in assay [1] (procedure of Example 24) is 4.52 to 6.00; in assay [2] (procedure of Example 24), 6.00 to 7.00.

Regarding `COc1ccccc1CN1CCN(c2nc3c(nc2-c2cnn(C)c2)CN(C(C)=O)CC3)CC1` [Compound 509, 1-(2-{4-[(o-methoxyphenyl)methyl]-1-piperazinyl}-3-(1-methyl-4-pyrazolyl)-5,6,7,8-tetrahydro-1,4,6-triaza-6-naphthyl)-1-ethanone], the pIC50 is 4.52 to 6.00 in assay [1] (setting [3]) and at most 4.52 in assay [2] (setting [4]).

With `C[C@H](O)[C@H](O)c1cc2nc(N3CCC(Oc4ccc(F)cc4F)CC3)c(-c3cnn(C)c3)nc2cn1` (single isomer, unassigned) [Compound 471], the results for the pIC50 in assay [1] (setting [5]) and in assay [2] (setting [6]) were 4.52 to 6.00 and 6.00 to 7.00, respectively.

On to `CC(=O)N1CCc2nc(N3CCC(Oc4ccc(F)cc4F)CC3)c(-c3ncco3)nc2C1` [Compound 18, 1-{2-[4-(2,4-difluorophenoxy)piperidin-1-yl]-3-(1,3-oxazol-2-yl)-5H,6H,7H,8H-pyrido[3,4-b]pyrazin-6-yl}ethan-1-one], for which the values for the pIC50 in assay [1] (setting [7]) and in assay [2] (setting [7]) were 6.00 to 7.00 and 4.52 to 6.00, respectively.

Take `COc1cncc(-c2nc3cnc(C(O)C(C)(C)O)cc3nc2N2CCN(Cc3ccc(F)cc3F)CC2)n1` (single isomer, unassigned) [Compound 94, 1-(2-(4-(2,4-difluorobenzyl)piperazin-1-yl)-3-(6-methoxypyrazin-2-yl)pyrido[3,4-b]pyrazin-7-yl)-2-methylpropane-1,2-diol]: the pIC50 in assay [1] (setting [5]) and in assay [2] (setting [6]) was 4.52 to 6.00 each time.

Consider `Cn1cc(-c2nc3cnccc3nc2N2CCN(CC3CCCOC3)CC2)cn1` (centres unmarked) [Compound 241, 1-[3-(1-methyl-1H-pyrazol-4-yl)pyrido[3,4-b]pyrazin-2-yl]-4-[(oxan-3-yl)methyl]piperazine], for which the pIC50 in assay [1] (setting [5]) and in assay [2] (setting [6]) was at most 4.52 each time.

For `CC(=O)N1CCc2nc(N3CCN(C(=O)c4ccc(F)cc4)CC3)c(-c3cnn(C)c3)nc2C1` [Compound 255, 1-{2-[4-(4-fluorobenzoyl)piperazin-1-yl]-3-(1-methyl-1H-pyrazol-4-yl)-5H,6H,7H,8H-pyrido[3,4-b]pyrazin-6-yl}ethan-1-one], the pIC50 in assay [1] (setting [5]) and in assay [2] (setting [6]) was 4.52 to 6.00 in each case.

A word on the pIC50: it is the IC50 on a negative log10 scale, so that one unit is a factor of ten. A lower pIC50 goes with a large IC50.

For the origin of these results see patent publication US20260042755A1, “GPR6 INVERSE AGONISTS” (MapLight Therapeutics, Inc., priority 2022, published 2026).
